From patent US20150079071A1, “NON-CATALYTIC DOMAIN TARGETS IN MATRIX METALLOPROTEASE PROTEINS FOR CANCER THERAPIES” (THE REGENTS OF THE UNIVERSITY OF CALIFORNIA, priority 2012, published 2015) come the findings set out here.

Holding throughout (assay type): cell-based, mouse
For experiment [1], the system named is SCp2 cells. The experiment can be described thus: Invasion assay in Boyden chambers. To be noted: for invasion of FL and EA-SCp2 cells: SCp2 overexpressing MMP3 constructs containing the hemopexin domain; for invasion of dPEX-SCp2 or control cells: SCp2 with hemopexin-deleted MMP3 or control vector. How it is done: Cell culture inserts (8 μm, 24-well format; BD Biosciences) were evenly coated with 20 μL of diluted (1:5 in DMEM/F-12 medium) Matrigel (BD Biosciences). Cells (1×10^5) in 200 μL of DMEM/F-12 medium or different CM (as indicated in each experiment) were added to the upper compartment of the chamber. The lower compartment of the chamber was filled with 300 μL of medium containing 10% FBS as a chemoattractant. After 48 h of incubation at 37° C., the top side of the insert was cleared from noninvasive cells with a cotton swab and washed with serum-free DMEM/F-12. The remaining (invasive) cells at the lower surface of the filter were fixed and stained with a solution of Coomassie Blue 0.125% in methanol:acetic acid:H2O (45%:10%:45% [v/v/v]) for 15 min. Invasive cells were scored by counting 10×20 magnification fields per filter with a Zeiss Imager Z1 microscope using a 20× objective. Mouse embryonic fibroblast NIH/3T3 cells were routinely included as a positive control. Results are expressed as mean±SD from three independent experiments.

The test system of experiment [2] is primary mammary organoids and EpH4 cells. The experiment can be described thus: Branching morphogenesis (invasion/branching) assay in collagen-1 gels. The note with it: 9 nM FGF2, inhibitors 40 μM; for invasion/branching in sparse CL-1 gels: sparse CL-1 1 mg/ml. The procedure:
Single cells were removed by centrifugation and the clusters were then washed three times with DMEM/F12. Cell clusters and primary organoids were embedded in collagen-1 gels. Briefly, acid-extracted type I collagen (Koken, Tokyo, Japan) was mixed gently on ice (8 vol) with 1 vol of 10×DMEM/F12, then pH is adjusted to 7.4 with 0.1N NaOH. Collagen solution was added into each well of a 48-well plate, which was then incubated at 37° C. to allow gelation. EpH4 cell clusters or primary organoids were suspended in collagen at 3 mg/ml or 1 mg/ml, poured onto the basal collagen layer and placed at 37° C. for gelation. After gelation of the collagen, growth medium containing 9 nM FGF2 was added to the wells. Branching morphogenesis was assessed using a Nikon Diaphot 300 microscope and clusters were scored as positive when displaying three or more branches of length at least half the diameter of the central cell cluster.

For experiment [3], the system named is Erk. The experiment can be described thus: Immunoblot of phospho-Erk / total Erk (MAPK activity). The note with it: EpH4 cells in CL-1 gels.
Experimental: Samples were lysed using modified RIPA buffer (50 mM HEPES pH 7.4, 150 mM NaCl, 10% glycerol, 1% Triton X-100, 10 mM sodium pyrophosphate containing 1.5 mM MgCl2, 1 mM EGTA, 1% sodium deoxycholate, 0.25 mM Na3VO4, 100 mM NaF and proteinase inhibitor cocktail (EMD Millipore, Billerica, USA)). Protein concentration was determined using the BCA Protein Assay kit (Thermo Scientific, Waltham, USA), following the manufacturer's instructions. Protein samples (10 μg) were mixed with Laemmeli sample buffer and heated at 95° C. for 5 minutes. Samples were loaded into a pre-cast 4-20% tris-glycine polyacrylamide gel (Invitrogen) using the NOVEX system (Invitrogen). Resolved proteins were transferred to nitrocellulose membrane (Whatman, Maidstone, UK) followed by blocking in PBS, 0.05% Tween-20 with 5% w/v non-fat dry milk for 1 hour at room temperature (RT). Membranes were incubated overnight at 4° C. in 5% BSA, 0.1% Tween-20 in PBS containing antibodies that recognize either phosphorylated Erk1/2, total Erk1/2 (Cell Signaling). […] Primary antibodies were detected with HRP conjugated anti-IgG (Thermo) and the Pierce SuperSignal detection kit. Chemiluminescence ignal was captured with a FluorChem 8900 analysis system (Alpha Innotech, San Leandro, USA).
Experiment [4] relates to Mmp14 and Itgb1. The experiment is described as follows: Immunoblot of Mmp14 and Itgb1 levels in EpH4 cells. How it is done: Samples were lysed using modified RIPA buffer (50 mM HEPES pH 7.4, 150 mM NaCl, 10% glycerol, 1% Triton X-100, 10 mM sodium pyrophosphate containing 1.5 mM MgCl2, 1 mM EGTA, 1% sodium deoxycholate, 0.25 mM Na3VO4, 100 mM NaF and proteinase inhibitor cocktail (EMD Millipore, Billerica, USA)). Protein concentration was determined using the BCA Protein Assay kit (Thermo Scientific, Waltham, USA), following the manufacturer's instructions. Protein samples (10 μg) were mixed with Laemmeli sample buffer and heated at 95° C. for 5 minutes. Samples were loaded into a pre-cast 4-20% tris-glycine polyacrylamide gel (Invitrogen) using the NOVEX system (Invitrogen). Resolved proteins were transferred to nitrocellulose membrane (Whatman, Maidstone, UK) followed by blocking in PBS, 0.05% Tween-20 with 5% w/v non-fat dry milk for 1 hour at room temperature (RT). Membranes were incubated overnight at 4° C. in 5% BSA, 0.1% Tween-20 in PBS containing antibodies that recognize either phosphorylated Erk1/2, total Erk1/2 (Cell Signaling). Anti-Mmp14 (Abcam, Cambridge, USA), anti-Itgb1 (Santa Cruz Biotechnology, Santa Cruz, USA), anti-Itgb1 p788/789 (Abcam), anti-LAM A/C (Santa Cruz Biotechnology), anti-Actin (Abcam), anti-FLAG (Sigma) and rabbit IgG (Sigma) antibodies were used for immunoblotting. Primary antibodies were detected with HRP conjugated anti-IgG (Thermo) and the Pierce SuperSignal detection kit. Chemiluminescence ignal was captured with a FluorChem 8900 analysis system (Alpha Innotech, San Leandro, USA).
For orientation: A western blot detects proteins with antibodies after separation by electrophoresis.

Experiment [5] relates to primary mammary organoids. The experiment can be described thus: Branching morphogenesis assay of primary mammary organoids in 3D Col-1 gels. How it is done:
Primary organoids or clustered EpH4 cells were embedded in 3D Col-1 gels as previously published (Simian et al. 2001; Mori et al. 2013). In brief, acid-solubilized Col-1 solution was mixed gently on ice with 1 vol of 10×DMEM/F-12 (pH adjusted to 7.4 with 0.1 M NaOH), and the concentration was adjusted to 3 mg/mL with DMEM/F-12. A basal layer of 80 μL of Col-1 was poured into each well of an eight-well chambered coverglass (155409, Thermo Scientific) and allowed to gel for 5 min at 37° C. A second layer of 200 μL of Col-1 containing 150 organoids or EpH4 clusters was added to each well and placed immediately at 37° C. After gelation, 400 μL of chemically defined medium (DMEM/F-12 containing 1% insulin/transferrin/selenium, 1% penicilin/streptomycin) with 9 nM TGFα (Sigma) or 9 nM bFGF (Sigma) was added to each well (unless stated otherwise) and replaced every other day.
After 3 d of culture, gels were fixed with 4% formalin for 30 min and stained with phalloidin and DAPI for 1 h. Structures were imaged with an upright Zeiss LSM710 using a 0.8 NA 20× air objective. […] The number of extending processes and their average length were determined using the Imaris program (Bitplane). […] Fifty structures were counted per condition, and the experiments were executed at least three times.

Where two headings read alike, the source gives them in different places.

For `CCc1cc(-c2n[nH]c(C)c2-c2ccc3c(c2)OCCO3)c(O)cc1O` [CCT018159], in experiment [1], the “invasion of FL and EA-SCp2 cells” value is on record as “reduced invasion”; the “invasion of dPEX-SCp2 or control cells” value was “no significant effect”.
Take `CNC(=O)[C@H](Cc1c[nH]c2ccccc12)NC(=O)[C@@H](CC(=O)NO)CC(C)C` [GM6001]: in experiment [2] (dense CL-1 3 mg/ml), the “invasion/branching in dense CL-1 gels” value is recorded as “completely abrogated”. In experiment [2], the “invasion/branching in sparse CL-1 gels” value is reported as “still invaded”. Also, the “MAPK activation (pErk/total Erk)” value in experiment [3] is on record as “did not change”.
Take `COc1cccc(-c2cc(=O)c3ccccc3o2)c1N` [PD98059]: the “invasion/branching in sparse CL-1 gels” value in experiment [2] is on record as “reduced invasion/branching”. Moreover, in experiment [4], the Itgb1 level entry is reported as “reduced” and the Mmp14 level result is on record as “reduced”. For the same molecule, in experiment [4] (listed as PD95089), the Itgb1 level entry is “reduced expression” and the Mmp14 level result was “reduced expression”.
With “recombinant HSP90β: recombinant HSP90β protein purchased from Calbiochem/EMD Millipore”, in experiment [1], the “invasion of FL and EA-SCp2 cells” value was “enhanced invasion significantly”; the “invasion of dPEX-SCp2 or control cells” value is recorded as “did not raise the invasive potential”. Further, the “invasion and branching of mammary organoids” value in experiment [5] (3 mg/mL Col-1, 3 d, TGFα) is reported as “most exuberant branched structures”. For the same molecule, the “spatial network per organoid” value in experiment [5] (organoids overexpressing FL MMP3, 3 mg/mL Col-1, 3 d) is recorded as “longest spatial network observed so far”.
